{
  "source": "patent US10777299B2",
  "about": "“Systems and methods for matching oncology signatures” (THE TRUSTEES OF COLUMBIA UNIVERSITY IN THE CITY OF NEW YORK, priority 2015, dated 2020)",
  "key": {"[1]": {"tested_on": "rectal neuroendocrine tumor metastasis (NET-MET) tumor checkpoint", "assay": "Drug-induced VIPER-inferred protein activity signatures in H-STS cells versus NET-MET checkpoint", "format": "cell-based, human", "settings": "H-STS cell line", "text": "Drug MoA information was inferred using a NET liver metastasis-derived cell line (H-STS), which recapitulated the tumor checkpoint inferred from patient's samples (FIG. 6A).\nDrug-induced VIPER-inferred protein activity signatures were obtained for a few drugs including entinostat. […] Drug MoA information was inferred using a NET liver metastasis-derived cell line (H-STS), which recapitulated the tumor checkpoint inferred from patient's samples, as shown in FIG. 6A."}, "[2]": {"tested_on": "H-STS xenograft checkpoint MRs", "assay": "OncoTreat: VIPER-inferred MR reversal after compound perturbation of H-STS cells, xenograft MRs", "format": "cell-based, human", "settings": "H-STS cell perturbation", "experimental": "(§1) To assess the ability of these compounds to induce Tumor Checkpoint collapse (i.e., global inversion of patient-derived MR activity pattern), gene expression profiles were generated at 6 h and 24 h following perturbation of H-STS cells with two sub-lethal compound concentrations, the 72 h IC20 and 1/10th of that concentration in duplicate. The 24 h time point was considered more informative for long term response. These were produced by 30M SE read Illumina TruSeq profiling of RNA purified from treated cells as well as from cells treated with control media (DMSO). This ensured that the highest compound concentration can be tested that would not induce cell death processes and would thus faithfully recapitulate the compound mechanism of action (MoA) rather than the mechanisms and programs associated with cell demise. While in vivo endpoint phenotypes (e.g., tumor viability) are not effectively recapitulated in 2D cultures in vitro, compound MoA is reasonably well-recapitulated in both contexts. One aim can be to identify compounds capable of inverting MR activity signature in vitro in a relatively faithful model of the tumor regulatory context, to assess whether these compounds would have activity in vivo.\n(§2) Drug signatures were analyzed with VIPER to assess the change in protein activity before and after the perturbation. Specifically, RX-GES were generated by differential expression of compound-treated vs. control-vehicle-treated cells at all time points and concentrations and analyzed with VIPER against the EP-NET interactome. This ranked all 5,602 regulatory proteins represented in the interactome from the one whose activity was most inhibited to the one whose activity was most increased following drug perturbation. An aREA analysis of patient samples that were well represented by the H-STS xenograft model was performed to assess enrichment of metastatic progression MRs in proteins whose activity was most inverted following drug perturbation. Since validation of these predictions was performed in H-STS mouse xenograft models, the analysis was limited to each NET-MET MRs that were recapitulated in the H-STS xenograft. […] Rather they allow optimal tuning of the results to available in vitro and in vivo models for optimal design of validation assays. Thus, the OncoTreat methodology uses the ability to prioritize small molecule compounds that optimally reverse a patient-specific MR activity signature.\n(§3) FIG. 15 depicts the enrichment of the top 50 most activated (shown in red in the enrichment plots) and the top 50 most deactivated (shown in blue) proteins in patient 0 on the protein activity signature induced by each compound perturbation in the H-STS cell line. […] The colored bar indicates the tissue of origin for each of the evaluated tumors."}, "[3]": {"tested_on": "patient-0 metastasis checkpoint MRs", "assay": "OncoTreat: VIPER-inferred MR reversal after compound perturbation of H-STS cells, patient-0 MRs", "format": "cell-based, human", "settings": "H-STS cell perturbation, FIG. 10A", "experimental": "as §1, §2\nas §3, with “tumors. […]” for “tumors.”"}, "H-STS xenograft [4]": {"tested_on": "H-STS xenograft", "assay": "H-STS xenograft tumor growth, Champions Oncology (TGI, RECIST, TR)", "format": "in vivo, mice", "settings": "for % TGI: H-STS xenograft in NOD-SCIDS mice, treated 25 days; for effect on H-STS xenograft tumor growth (FIG. 4B): H-STS xenograft models; for RECIST PD/SD/PR/CR: number of mice per response class; for % TR (tumor regression): H-STS xenograft", "experimental": "All test agents were formulated according to manufacturer's specifications. Beginning Day 0, tumor dimensions were measured twice weekly by digital caliper and data, including individual and mean estimated tumor volumes (Mean TV±SEM), were recorded for each group. Tumor volume was calculated using the formula: […].\nAt study completion, percent tumor growth inhibition (% TGI) values were calculated and reported for each treatment group (T) versus control (C) using initial (i) and final (f) tumor measurements by the formula: % TGI=[1−(Tf−Ti)/(Cf−Ci)]×100. Individual mice reporting a tumor volume >120% of the Day 0 measurement were considered to have progressive disease (PD). Individual mice with neither sufficient shrinkage nor sufficient tumor volume increases are considered to have stable disease (SD). Individual mice reporting a tumor volume ≤70% of the Day 0 measurement for two consecutive measurements over a seven day period were considered partial responders (PR). If the PR persisted until study completion, percent tumor regression (% TR) was determined using the formula: % TR=(1−Tf/Ti)×100; a mean value was calculated for the entire treatment group. Individual mice lacking palpable tumors for two consecutive measurements over a seven day period were classified as complete responders (CR). All data collected in this study were managed electronically and stored on a redundant server system.\n(§4) In vivo validation in NOD-SCIDS mice xenografts established by subcutaneous injection of H-STS cells was first conducted at Champions Oncology and then independently confirmed in the mouse hospital facility at Columbia University. Mice were enrolled in treatment arms when tumor size reached 250 mm^3 and were treated for 25 days. Tumor size was measured twice weekly by digital caliper, see methods."}, "H-STS xenograft [5]": {"tested_on": "H-STS xenograft", "assay": "H-STS xenograft tumor growth, follow-up studies at Columbia", "format": "in vivo, mice", "settings": "mean of 8 animals", "experimental": "as §4\nThis is in line with the poor effect of Bardoxolone methyl, I-BET151 and Bortezomib on xenograft tumor growth, and the strong abrogation elicited by Entinostat (FIGS. 10B and 10C). In summary, while the effect of the Entinostat, I-BET151 and Bardoxolone methyl on the reversal of patient-0 checkpoint activity inferred from the in vitro H-STS perturbation assay was confirmed in the xenograft model, only Entinostat reverted the activity of the H-STS xenograft checkpoints and abrogated tumor growth (FIG. 10).\nFIG. 10A depicts enrichment of patient-0 metastasis checkpoint MRs on the protein activity signatures induced by 6 selected compounds in the H-STS cells. FIGS. 10B and 10C depict growth curves for the H-STS xenograft while treated by vehicle control, and each of the 6 selected compounds. Curves show tumor volume for individual animals (FIG. 10B) or the mean±SEM of 8 animals (FIG. 10C). FIG. 10D depicts enrichment of patient-0 metastasis checkpoint on the protein activity signatures induced by 4 selected compounds in the H-STS xenograft. FIG. 10E depicts enrichment of H-STS xenograft checkpoint on the protein activity signatures induced by 4 selected compounds in the H-STS xenograft."}, "[6]": {"tested_on": "patient-0 checkpoint protein activity", "assay": "Xenograft transcriptome analysis after drug administration, patient-0 checkpoint", "format": "in vivo, mice", "settings": "xenograft transcriptome 3 hours after 3rd drug administration"}, "[7]": {"tested_on": "H-STS xenograft checkpoint", "assay": "Xenograft transcriptome analysis after drug administration, H-STS xenograft checkpoint", "format": "in vivo, mice", "settings": "xenograft transcriptome 3 hours after 3rd drug administration"}},
  "data": [
    {"smiles": "O=C(/C=C/c1cccc(S(=O)(=O)Nc2ccccc2)c1)NO", "note": "[Belinostat]", "values": [
      {"measurement": "reverting the NET-MET tumor checkpoint (FIG. 4A)", "setting": "[1]", "value": "not affecting NET-MET checkpoint"},
      {"measurement": "reversal of xenograft MRs (in words)", "setting": "[2]", "value": "no significant reversal"},
      {"measurement": "reversal of patient-0 MRs (in words)", "setting": "[3]", "value": "no significant reversal"},
      {"measurement": "% TGI", "setting": "H-STS xenograft [4]; 20 mg (text: 20 mg/kg/dose)", "value": 8, "unit": "%"},
      {"measurement": "% TGI", "setting": "H-STS xenograft [4]; 20 mg (text: 20 mg/kg/dose), listed as PDX101", "value": 8, "unit": "%"},
      {"measurement": "% TGI", "setting": "H-STS xenograft [4]; 40 mg", "value": "−55", "unit": "%"},
      {"measurement": "effect on H-STS xenograft tumor growth (FIG. 4B)", "setting": "H-STS xenograft [4]", "value": "did not abrogate tumor growth"},
      {"measurement": "RECIST PD/SD/PR/CR", "setting": "H-STS xenograft [4]; 20 mg", "value": "3/0/0/0"},
      {"measurement": "RECIST PD/SD/PR/CR", "setting": "H-STS xenograft [4]; 40 mg", "value": "3/0/0/0"}
    ]},
    {"smiles": "CC(C)C[C@H](NC(=O)[C@H](Cc1ccccc1)NC(=O)c1cnccn1)B(O)O", "note": "[Bortezomib]", "values": [
      {"measurement": "xenograft tumor growth versus vehicle control (FIG. 10C)", "setting": "H-STS xenograft [5]", "value": "no significant difference"},
      {"measurement": "inhibition of patient-0 checkpoint protein activity in xenograft (FIG. 10D)", "setting": "[6]", "value": "no effect"}
    ]},
    {"smiles": "Nc1ccccc1NC(=O)c1ccc(CNC(=O)OCc2cccnc2)cc1", "note": "[Entinostat]", "values": [
      {"measurement": "reverting the NET-MET tumor checkpoint (FIG. 4A)", "setting": "[1]", "value": "most potent agent"},
      {"measurement": "xenograft tumor growth versus vehicle control (FIG. 10C)", "setting": "H-STS xenograft [5]", "value": "complete tumor growth abrogation"},
      {"measurement": "reversal of xenograft MRs (in words)", "setting": "[2]", "value": "significantly abrogating"},
      {"measurement": "reversal of xenograft MRs (in words)", "setting": "[2]; listed as entinostat", "value": "most significant reversal"},
      {"measurement": "reversal of patient-0 MRs (in words)", "setting": "[3]", "value": "significantly abrogating"},
      {"measurement": "reversal of patient-0 MRs (in words)", "setting": "[3]; listed as entinostat", "value": "most significant reversal"},
      {"measurement": "inhibition of the H-STS xenograft checkpoint in xenograft (FIG. 10E)", "setting": "[7]", "value": "significant inhibition"},
      {"measurement": "inhibition of patient-0 checkpoint protein activity in xenograft (FIG. 10D)", "setting": "[6]", "value": "strong inhibition"},
      {"measurement": "drug toxicity / animal deaths", "setting": "H-STS xenograft [4]; 100 mg (text: 100 mg/kg/dose), one week into the test", "value": "toxic"},
      {"measurement": "% TGI", "setting": "H-STS xenograft [4]; 25 mg (text: 25 mg/kg/dose)", "value": 112, "unit": "%"},
      {"measurement": "% TGI", "setting": "H-STS xenograft [4]; 25 mg (text: 25 mg/kg/dose), listed as MS-27-275", "value": 112, "unit": "%"},
      {"measurement": "% TGI", "setting": "H-STS xenograft [4]; 50 mg (50 mg/kg/dose)", "value": 110, "unit": "%"},
      {"measurement": "% TGI", "setting": "H-STS xenograft [4]; 50 mg (50 mg/kg/dose), listed as MS-27-275", "value": 110, "unit": "%"},
      {"measurement": "effect on H-STS xenograft tumor growth (FIG. 4B)", "setting": "H-STS xenograft [4]", "value": "abrogated completely tumor growth"},
      {"measurement": "% TR (tumor regression)", "setting": "H-STS xenograft [4]; 25 mg (text: 25 mg/kg/dose)", "value": 68, "unit": "%"},
      {"measurement": "% TR (tumor regression)", "setting": "H-STS xenograft [4]; 50 mg (50 mg/kg/dose)", "value": 58, "unit": "%"},
      {"measurement": "% TR (tumor regression)", "setting": "H-STS xenograft [4]; 100 mg (text: 100 mg/kg/dose), single surviving animal", "value": 49, "unit": "%"},
      {"measurement": "RECIST PD/SD/PR/CR", "setting": "H-STS xenograft [4]; 25 mg", "value": "0/0/3/0"},
      {"measurement": "RECIST PD/SD/PR/CR", "setting": "H-STS xenograft [4]; 50 mg", "value": "0/0/3/0"},
      {"measurement": "RECIST PD/SD/PR/CR", "setting": "H-STS xenograft [4]; 100 mg", "value": "0/0/1/0"}
    ]},
    {"smiles": "COc1cc2c(cc1-c1c(C)noc1C)ncc1[nH]c(=O)n([C@H](C)c3ccccn3)c12", "note": "[I-BET151]", "values": [
      {"measurement": "xenograft tumor growth versus vehicle control (FIG. 10C)", "setting": "H-STS xenograft [5]", "value": "no significant difference"},
      {"measurement": "reversal of xenograft MRs (in words)", "setting": "[2]", "value": "significantly abrogating"},
      {"measurement": "reversal of patient-0 MRs (in words)", "setting": "[3]", "value": "significantly abrogating"},
      {"measurement": "inhibition of patient-0 checkpoint protein activity in xenograft (FIG. 10D)", "setting": "[6]", "value": "strong inhibition"}
    ]},
    {"smiles": "O=C1NC(=O)[C@@H](c2cn3c4c(cccc24)CCC3)[C@@H]1c1c[nH]c2ccccc12", "note": "[Tivantinib]", "values": [
      {"measurement": "% TGI", "setting": "H-STS xenograft [4]; 50 mg (50 mg/kg/dose)", "value": "−46", "unit": "%"},
      {"measurement": "% TGI", "setting": "H-STS xenograft [4]; 100 mg (text: 100 mg/kg/dose)", "value": 28, "unit": "%"},
      {"measurement": "% TGI", "setting": "H-STS xenograft [4]; 100 mg (text: 100 mg/kg/dose), listed as ARQ197", "value": 28, "unit": "%"},
      {"measurement": "% TGI", "setting": "H-STS xenograft [4]; 200 mg (text: 200 mg/kg/dose)", "value": 43, "unit": "%"},
      {"measurement": "% TGI", "setting": "H-STS xenograft [4]; 200 mg (text: 200 mg/kg/dose), listed as ARQ197", "value": 43, "unit": "%"}
    ]}
  ]
}
